Reference: ChEMBL document CHEMBL1201862, “PubChem BioAssay data set” (2004)
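These data come from cells grown in 96-well plates and exposed to compound for 48 hours at five concentrations. At the GI50, growth is halved.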 Calls of active or inactive are those of the source. Rule as the data show it: active = GI50 up to about 1.1 µM and inactive = higher.

Experiments:
Assay in all cases: inhibition of tumour cell growth, NCI panel, 48 h
CAKI-1 = tested on: CAKI-1
OVCAR-8 = tested on: OVCAR-8
HOP-92 = tested on: HOP-92
SNB-75 = tested on: SNB-75
SF-539 = tested on: SF-539
MOLT-4 = tested on: MOLT-4
COLO 205 = tested on: COLO 205
LXFL 529 = tested on: LXFL 529
NCI-H522 = tested on: NCI-H522
SK-MEL-5 = tested on: SK-MEL-5
SN12C = tested on: SN12C
UACC-257 = tested on: UACC-257
ACHN = tested on: ACHN
EKVX = tested on: EKVX
SF-268 = tested on: SF-268
HOP-62 = tested on: HOP-62
NCI-H460 = tested on: NCI-H460
M19-MEL = tested on: M19-MEL
HOP-18 = tested on: HOP-18
SNB-19 = tested on: SNB-19
A549 = tested on: A549
UO-31 = tested on: UO-31
HT-29 = tested on: HT-29
HL-60 = tested on: HL-60
IGROV-1 = tested on: IGROV-1
M14 = tested on: M14
HCT-15 = tested on: HCT-15
OVCAR-5 = tested on: OVCAR-5
HCC 2998 = tested on: HCC 2998
UACC-62 = tested on: UACC-62
RXF 393 = tested on: RXF 393
RPMI-8226 = tested on: RPMI-8226
TK-10 = tested on: TK-10
NCI-H226 = tested on: NCI-H226
OVCAR-4 = tested on: OVCAR-4
U-251 = tested on: U-251
Malme-3M = tested on: Malme-3M
A498 = tested on: A498
CCRF-CEM = tested on: CCRF-CEM
NCI-H23 = tested on: NCI-H23
DMS-273 = tested on: DMS-273
SK-MEL-2 = tested on: SK-MEL-2
KM-20L2 = tested on: KM-20L2
HCT-116 = tested on: HCT-116
OVCAR-3 = tested on: OVCAR-3
DMS-114 = tested on: DMS-114
DLD-1 = tested on: DLD-1
SF-295 = tested on: SF-295
786-0 = tested on: 786-0
SK-MEL-28 = tested on: SK-MEL-28
LOX IMVI = tested on: LOX IMVI
KM12 = tested on: KM12
K562 = tested on: K562
SW-620 = tested on: SW-620
SR = tested on: SR
SNB-78 = tested on: SNB-78
SK-OV-3 = tested on: SK-OV-3

O=C(CC/C(C/C(=N/O)c1ccc(F)cc1)=N/O)N(Cc1ccccc1)Cc1ccccc1
GI50 (CAKI-1): > 100 µM (inactive)
GI50 (OVCAR-8): > 100 µM (inactive)
GI50 (HOP-92): > 100 µM (inactive)
GI50 (SNB-75): > 100 µM (inactive)
GI50 (SF-539): > 100 µM (inactive)
GI50 (MOLT-4): > 100 µM (inactive)
GI50 (COLO 205): 73.8 µM (inactive)
GI50 (LXFL 529): > 100 µM (inactive)
GI50 (NCI-H522): > 100 µM (inactive)
GI50 (SK-MEL-5): > 100 µM (inactive)
GI50 (SN12C): > 100 µM (inactive)
GI50 (UACC-257): > 100 µM (inactive)
GI50 (ACHN): > 100 µM (inactive)
GI50 (EKVX): 58.6 µM (inactive)
GI50 (SF-268): > 100 µM (inactive)
GI50 (HOP-62): > 100 µM (inactive)
GI50 (NCI-H460): > 100 µM (inactive)
GI50 (M19-MEL): > 100 µM (inactive)
GI50 (HOP-18): > 100 µM (inactive)
GI50 (SNB-19): > 100 µM (inactive)
GI50 (A549): > 100 µM (inactive)
GI50 (UO-31): > 100 µM (inactive)
GI50 (HT-29): > 100 µM (inactive)
GI50 (HL-60): > 100 µM (inactive)
GI50 (IGROV-1): > 100 µM (inactive)
GI50 (M14): > 100 µM (inactive)
GI50 (HCT-15): > 100 µM
GI50 (OVCAR-5): > 100 µM (inactive)
GI50 (HCC 2998): > 100 µM (inactive)
GI50 (UACC-62): > 100 µM (inactive)
GI50 (RXF 393): > 100 µM (inactive)
GI50 (RPMI-8226): > 100 µM (inactive)
GI50 (TK-10): > 100 µM (inactive)
GI50 (NCI-H226): > 100 µM (inactive)
GI50 (OVCAR-4): > 100 µM (inactive)
GI50 (U-251): > 100 µM (inactive)
GI50 (Malme-3M): > 100 µM (inactive)
GI50 (A498): > 100 µM (inactive)
GI50 (CCRF-CEM): > 100 µM (inactive)
GI50 (NCI-H23): > 100 µM (inactive)
GI50 (DMS-273): > 100 µM (inactive)
GI50 (SK-MEL-2): > 100 µM (inactive)
GI50 (KM-20L2): > 100 µM (inactive)
GI50 (HCT-116): > 100 µM (inactive)
GI50 (OVCAR-3): > 100 µM (inactive)
GI50 (DMS-114): > 100 µM (inactive)
GI50 (DLD-1): > 100 µM (inactive)
GI50 (SF-295): > 100 µM (inactive)
GI50 (786-0): > 100 µM (inactive)
GI50 (SK-MEL-28): > 100 µM (inactive)
GI50 (LOX IMVI): > 100 µM (inactive)
GI50 (KM12): > 100 µM (inactive)
GI50 (K562): > 100 µM (inactive)
GI50 (SW-620): > 100 µM (inactive)

O=C1C(=O)C2(CC1S(=O)(=O)c1ccccc1)c1ccccc1-c1ccccc12 (stereo unspecified)
GI50 (CAKI-1): 29 µM (inactive)
GI50 (OVCAR-8): 17.9 µM (inactive)
GI50 (SNB-75): 37.3 µM (inactive)
GI50 (MOLT-4): 20.4 µM (inactive)
GI50 (COLO 205): 12.7 µM (inactive)
GI50 (LXFL 529): 16.3 µM (inactive)
GI50 (NCI-H522): 22.5 µM (inactive)
GI50 (SK-MEL-5): 14.6 µM (inactive)
GI50 (SN12C): 28.8 µM (inactive)
GI50 (UACC-257): 17.8 µM (inactive)
GI50 (ACHN): 28.6 µM (inactive)
GI50 (SR): 24 µM (inactive)
GI50 (EKVX): 28.8 µM (inactive)
GI50 (SF-268): 27.4 µM (inactive)
GI50 (SNB-78): 17.5 µM (inactive)
GI50 (HOP-62): 21.1 µM (inactive)
GI50 (NCI-H460): 18.6 µM (inactive)
GI50 (HOP-18): > 10 µM (inactive)
GI50 (SNB-19): 20.6 µM (inactive)
GI50 (A549): 24.7 µM (inactive)
GI50 (UO-31): 19.7 µM (inactive)
GI50 (HT-29): 27 µM (inactive)
GI50 (HL-60): 27.9 µM (inactive)
GI50 (IGROV-1): 23.1 µM (inactive)
GI50 (M14): 13.9 µM (inactive)
GI50 (HCT-15): 16.7 µM
GI50 (SK-OV-3): 38.9 µM (inactive)
GI50 (OVCAR-5): 23 µM (inactive)
GI50 (HCC 2998): 14.7 µM (inactive)
GI50 (UACC-62): 16.6 µM (inactive)
GI50 (RXF 393): 18.7 µM (inactive)
GI50 (RPMI-8226): 26.4 µM (inactive)
GI50 (TK-10): 25.8 µM (inactive)
GI50 (NCI-H226): 37.4 µM (inactive)
GI50 (OVCAR-4): 48.9 µM (inactive)
GI50 (U-251): 18.6 µM (inactive)
GI50 (Malme-3M): > 10 µM (inactive)
GI50 (A498): 19.1 µM (inactive)
GI50 (CCRF-CEM): 24.7 µM (inactive)
GI50 (NCI-H23): 15.5 µM (inactive)
GI50 (DMS-273): 19.5 µM (inactive)
GI50 (SK-MEL-2): 18.1 µM (inactive)
GI50 (KM-20L2): 44 µM (inactive)
GI50 (HCT-116): 17.3 µM (inactive)
GI50 (OVCAR-3): > 10 µM (inactive)
GI50 (DMS-114): 22 µM (inactive)
GI50 (DLD-1): 24.8 µM (inactive)
GI50 (SF-295): 21.3 µM (inactive)
GI50 (786-0): 26.6 µM (inactive)
GI50 (SK-MEL-28): 19.7 µM (inactive)
GI50 (LOX IMVI): 18.5 µM (inactive)
GI50 (KM12): 19.2 µM (inactive)
GI50 (K562): 27.6 µM (inactive)
GI50 (SW-620): 34.6 µM (inactive)

CCCc1[nH]c(SCCCCCCCCSc2nc(-c3ccc(F)cc3)c(CCC)[nH]2)nc1-c1ccc(F)cc1
GI50 (OVCAR-8): 9.84 µM (inactive)
GI50 (HOP-92): 3.8 µM (inactive)
GI50 (SNB-75): 2.11 µM (inactive)
GI50 (SF-539): 6.21 µM (inactive)
GI50 (MOLT-4): 4.65 µM (inactive)
GI50 (COLO 205): 77.4 µM (inactive)
GI50 (LXFL 529): 7.46 µM (inactive)
GI50 (SK-MEL-5): 4.68 µM (inactive)
GI50 (SN12C): 9.42 µM (inactive)
GI50 (UACC-257): 12.2 µM (inactive)
GI50 (ACHN): 54.1 µM (inactive)
GI50 (SR): 7.08 µM (inactive)
GI50 (EKVX): 4.89 µM (inactive)
GI50 (SF-268): 3.33 µM (inactive)
GI50 (SNB-78): 26.2 µM (inactive)
GI50 (HOP-62): 15.2 µM (inactive)
GI50 (NCI-H460): 35.2 µM (inactive)
GI50 (M19-MEL): 29.9 µM (inactive)
GI50 (HOP-18): 6.41 µM (inactive)
GI50 (SNB-19): 21.3 µM (inactive)
GI50 (A549): 11.3 µM (inactive)
GI50 (UO-31): 6.11 µM (inactive)
GI50 (HT-29): 62.7 µM (inactive)
GI50 (HL-60): 6.5 µM (inactive)
GI50 (IGROV-1): 37.7 µM (inactive)
GI50 (M14): 17.3 µM (inactive)
GI50 (HCT-15): 7 µM
GI50 (OVCAR-5): 33 µM (inactive)
GI50 (HCC 2998): > 100 µM (inactive)
GI50 (UACC-62): 5.58 µM (inactive)
GI50 (RXF 393): 27.4 µM (inactive)
GI50 (RPMI-8226): 1.98 µM (inactive)
GI50 (TK-10): 17.7 µM (inactive)
GI50 (OVCAR-4): 10.3 µM (inactive)
GI50 (U-251): 18.7 µM (inactive)
GI50 (CCRF-CEM): 6.59 µM (inactive)
GI50 (NCI-H23): 4.49 µM (inactive)
GI50 (DMS-273): 44.3 µM (inactive)
GI50 (SK-MEL-2): 24.2 µM (inactive)
GI50 (KM-20L2): 16.1 µM (inactive)
GI50 (HCT-116): 5.42 µM (inactive)
GI50 (OVCAR-3): 1.94 µM (inactive)
GI50 (DMS-114): 3.94 µM (inactive)
GI50 (SK-MEL-28): 26.7 µM (inactive)
GI50 (LOX IMVI): 10.3 µM (inactive)
GI50 (KM12): 35.2 µM (inactive)
GI50 (K562): 3.83 µM (inactive)
GI50 (SW-620): > 100 µM (inactive)
